Results reported in patent US11963997B2, “Anti-tumor polypeptide Bax-BH3, fluorescent polymeric nanomicelle, preparation method and use thereof” (Jilin University, priority 2021, dated 2024).
Residues, ends and D or L forms follow the SMILES beside them. No end group written: not given here. *: point of attachment. Cbz = O=C(OCc1ccccc1)*; CH2F = FC*

How the values were obtained:
HEK-293T cells [1] = assay: Fluorescence microscopy of HEK-293T cells after transfection (Hoechst 33342 nuclear staining); type: cell-based; conditions: 1 μg plasmid per well, 4 h transfection then 12 h culture, Z-VAD-FMK 20 μM added 2 h before transfection
Protocol: (§1) The cultured HEK-293T cells (purchased from ATCC) were digested and counted with a hemocytometer, the resulting cells were diluted with a medium containing 10% fetal bovine serum (FBS) by volume, and added to a six-well plate, with 2×10^5 cells per well. The six-well plate was incubated in a 5% CO2 incubator at 37° C. until the cells grew to 50% to 70% confluence for transfection. […]
(§2) During the transfection, a mass-to-volume ratio (m:v) of the plasmid and the transfection reagent was 1:2, and 1 μg of the plasmid was added to each well of the six-well plate, and 2 μl of the transfection reagent was added correspondingly; the plasmid and transfection reagent were diluted with a serum-free medium in advance, shaken well, and allowed to stand at 25° C. for 5 min separately; the transfection reagent was pipetted to the serum-free medium containing the plasmid, flicked to mix well, and allowed to stand at 25° C. for 20 min to obtain a complex. […] Z-VAD-FMK (Selleck) was added to the six-well plate at a concentration of 20 μM 2 h before the transfection, nuclei were colored with a Hoechst 33342 dye, and condition of the cells after transfection was observed under a fluorescence microscope.

HEK-293T cells [2] = assay: Annexin V-FITC flow cytometry-based apoptosis assay of transfected cells; type: cell-based
Protocol: as §1
as §2, with “microscope. […]” for “microscope.”

COC(=O)C[C@H](NC(=O)[C@H](C)NC(=O)[C@@H](NC(=O)OCc1ccccc1)C(C)C)C(=O)CF [Z-VAD-FMK] (Cbz-Val-Ala-Asp(OMe)-CH2F)
condition of the cells after transfection observed under a fluorescence microscope (HEK-293T cells [1]): significantly inhibit apoptosis | survival rate of cells (FIG. 4) (HEK-293T cells [2]; HEK-293T cells after transfection, in words): significantly improved

DASTKKLSECLRRIGDELDS
effect on apoptosis (HEK-293T cells [2]; Bax-BH3 polypeptide expressed by the recombinant vector transfected into HEK-293T cells): promoting apoptosis
